Results as given in patent US20260053811A1, “METHODS OF TREATING HYPERTENSION IN OBESE SUBJECTS” (Mineralys Therapeutics, Inc., priority 2022, published 2026).

Experiments:
Format in all cases: in vivo, human
serum cortisol = experiment: Serum cortisol (pharmacodynamic response); settings: for Cortisol, Mean Observed / Cortisol, Mean Percent Change from Baseline: Part 2
Excerpt: (§1) PK/PD Analysis Set includes all subjects in the SAF who have sufficient data available for the analysis of pharmacokinetic and pharmacodynamic measurements. In the analyses based on PKPD, subjects will be analyzed according to the actual treatment received.

11-deoxycortisol = experiment: Plasma 11-deoxycortisol (pharmacodynamic response); settings: for 11-Deoxycortisol, Mean (SD) Observed / 11-Deoxycortisol, Mean (SD) Percent Change from Baseline: Part 1; for 11-Deoxycortisol, Mean Observed / 11-Deoxycortisol, Mean Percent Change from Baseline: Part 2
Excerpt: as §1

plasma renin activity = experiment: Plasma renin activity (PRA) (pharmacodynamic response); settings: for Renin Activity, Mean (SD) Observed / Renin Activity, Mean (SD) Percent Change from Baseline: Part 1; for Renin Activity, Mean Observed / Renin Activity, Mean Percent Change from Baseline: Part 2
Excerpt: as §1

hypertensive subjects = experiment: Clinical laboratory evaluations (chemistry incl. serum creatinine, hematology, coagulation, urinalysis)
Excerpt: Safety endpoints of this study are: • (a) Incidence and severity of all spontaneously reported adverse events (AEs) • (b) Changes in vital signs (standing SBP, standing DBP, body temperature, heart rate, and respiratory rate) • (c) Changes in electrocardiogram parameters (including cardiac intervals: PR, QRS, QT, and corrected QT interval using Fridericia's formula) • (d) Changes in clinical laboratory assessments (hematology, chemistry, coagulation, and urinalysis) • (e) Change in office-measured SBP from Study Week 8 (end-of-treatment period to end of follow up (i.e. end of Study Week 12 for Part 1 and end of Study 10 for Part 2).

CC(=O)N[C@H]1CC[C@H](NC(=O)CN2CCN(c3nncc(-c4ccc(C)cc4)n3)CC2)CC1 [Compound A HBr]
Cortisol, Mean (SD) Percent Change from Baseline (serum cortisol; Part 1, Wk 12, 50 mg QD): 6.91 (35.36) % | Cortisol, Mean (SD) Observed (serum cortisol; Part 1, Wk 12, 100 mg QD): 12.680 (5.659) μg/dL | Cortisol, Mean (SD) Percent Change from Baseline (serum cortisol; Part 1, Wk 12, 100 mg QD): 8.40 (30.09) % | Cortisol, Mean Observed (serum cortisol; Wk 4, 100 mg QD): 13.464 µg/dL | Cortisol, Mean Percent Change from Baseline (serum cortisol; Wk 4, 100 mg QD): 20.10% | Cortisol, Mean Observed (serum cortisol; Wk 8, 100 mg QD): 25.393 µg/dL | Cortisol, Mean Percent Change from Baseline (serum cortisol; Wk 8, 100 mg QD): 153.35% | Cortisol, Mean Observed (serum cortisol; Wk 10, 100 mg QD): 10.763 µg/dL | Cortisol, Mean Percent Change from Baseline (serum cortisol; Wk 10, 100 mg QD): 1.45% | Effects on serum cortisol (serum cortisol; pooled (Part 1 and Part 2) 100 mg QD safety set (n=60)): no effects on serum cortisol | Effects on serum cortisol (serum cortisol; safety dataset, complete analysis): no effects on serum cortisol | Morning serum cortisol levels (serum cortisol; summary of trial): modestly increased | 11-Deoxycortisol, Mean (SD) Observed (11-deoxycortisol; Wk 4, 12.5 mg BID): 24.89 (18.99) ng/dL | 11-Deoxycortisol, Mean (SD) Percent Change from Baseline (11-deoxycortisol; Wk 4, 12.5 mg BID): 22.56 (118.56) % | 11-Deoxycortisol, Mean (SD) Observed (11-deoxycortisol; Wk 4, 12.5 mg QD): 24.21 (19.92) ng/dL | 11-Deoxycortisol, Mean (SD) Percent Change from Baseline (11-deoxycortisol; Wk 4, 12.5 mg QD): 10.07 (76.22) % | 11-Deoxycortisol, Mean (SD) Observed (11-deoxycortisol; Wk 4, 25 mg BID): 35.23 (33.00) ng/dL | 11-Deoxycortisol, Mean (SD) Percent Change from Baseline (11-deoxycortisol; Wk 4, 25 mg BID): 40.12 (118.32) % | 11-Deoxycortisol, Mean (SD) Observed (11-deoxycortisol; Wk 4, 50 mg QD): 27.15 (13.97) ng/dL | 11-Deoxycortisol, Mean (SD) Percent Change from Baseline (11-deoxycortisol; Wk 4, 50 mg QD): 10.80 (61.95) % | 11-Deoxycortisol, Mean (SD) Observed (11-deoxycortisol; Wk 4, 100 mg QD): 29.29 (23.99) ng/dL | 11-Deoxycortisol, Mean (SD) Percent Change from Baseline (11-deoxycortisol; Wk 4, 100 mg QD): 9.43 (60.26) % | 11-Deoxycortisol, Mean (SD) Observed (11-deoxycortisol; Wk 12, 12.5 mg BID): 20.94 (10.27) ng/dL | 11-Deoxycortisol, Mean (SD) Percent Change from Baseline (11-deoxycortisol; Wk 12, 12.5 mg BID): −14.58 (33.13) % | 11-Deoxycortisol, Mean (SD) Observed (11-deoxycortisol; Wk 12, 12.5 mg QD): 31.56 (29.77) ng/dL | 11-Deoxycortisol, Mean (SD) Percent Change from Baseline (11-deoxycortisol; Wk 12, 12.5 mg QD): 58.62 (122.14) % | 11-Deoxycortisol, Mean (SD) Observed (11-deoxycortisol; Wk 12, 25 mg BID): 31.55 (26.82) ng/dL | 11-Deoxycortisol, Mean (SD) Percent Change from Baseline (11-deoxycortisol; Wk 12, 25 mg BID): 26.81 (72.59) % | 11-Deoxycortisol, Mean (SD) Observed (11-deoxycortisol; Wk 12, 50 mg QD): 26.15 (18.89) ng/dL | 11-Deoxycortisol, Mean (SD) Percent Change from Baseline (11-deoxycortisol; Wk 12, 50 mg QD): 9.25 (111.16) % | 11-Deoxycortisol, Mean (SD) Observed (11-deoxycortisol; Wk 12, 100 mg QD): 31.17 (25.98) ng/dL | 11-Deoxycortisol, Mean (SD) Percent Change from Baseline (11-deoxycortisol; Wk 12, 100 mg QD): 22.05 (64.71) % | 11-deoxycortisol compared with placebo (11-deoxycortisol; Part 1 active treatment arms, Week 4): Transient increases | 11-Deoxycortisol, Mean Observed (11-deoxycortisol; Wk 4, 100 mg QD): 35.96 ng/dL | 11-Deoxycortisol, Mean Percent Change from Baseline (11-deoxycortisol; Wk 4, 100 mg QD): 22.95% | 11-Deoxycortisol, Mean Observed (11-deoxycortisol; Wk 10, 100 mg QD): 27.60 ng/dL | 11-Deoxycortisol, Mean Percent Change from Baseline (11-deoxycortisol; Wk 10, 100 mg QD): −2.13% | Renin Activity, Mean (SD) Observed (plasma renin activity; Wk 4, 12.5 mg BID): 5.989 (11.272) μg/L/hr | Renin Activity, Mean (SD) Percent Change from Baseline (plasma renin activity; Wk 4, 12.5 mg BID): 838.89 (2411.4) % | Renin Activity, Mean (SD) Observed (plasma renin activity; Wk 4, 12.5 mg QD): 1.804 (3.565) μg/L/hr | Renin Activity, Mean (SD) Percent Change from Baseline (plasma renin activity; Wk 4, 12.5 mg QD): 85.09 (291.65) % | Renin Activity, Mean (SD) Observed (plasma renin activity; Wk 4, 25 mg BID): 2.860 (4.219) μg/L/hr | Renin Activity, Mean (SD) Percent Change from Baseline (plasma renin activity; Wk 4, 25 mg BID): 344.07 (480.75) % | Renin Activity, Mean (SD) Observed (plasma renin activity; Wk 4, 50 mg QD): 3.940 (9.162) μg/L/hr | Renin Activity, Mean (SD) Percent Change from Baseline (plasma renin activity; Wk 4, 50 mg QD): 359.69 (888.86) % | Renin Activity, Mean (SD) Observed (plasma renin activity; Wk 4, 100 mg QD): 3.870 (6.308) μg/L/hr | Renin Activity, Mean (SD) Percent Change from Baseline (plasma renin activity; Wk 4, 100 mg QD): 489.18 (974.60) % | Renin Activity, Mean (SD) Observed (plasma renin activity; Wk 12, 12.5 mg BID): 5.118 (11.751) μg/L/hr | Renin Activity, Mean (SD) Percent Change from Baseline (plasma renin activity; Wk 12, 12.5 mg BID): 212.37 (402.15) % | Renin Activity, Mean (SD) Observed (plasma renin activity; Wk 12, 12.5 mg QD): 2.429 (5.048) μg/L/hr | Renin Activity, Mean (SD) Percent Change from Baseline (plasma renin activity; Wk 12, 12.5 mg QD): 137.45 (279.23) % | Renin Activity, Mean (SD) Observed (plasma renin activity; Wk 12, 25 mg BID): 2.898 (8.323) μg/L/hr | Renin Activity, Mean (SD) Percent Change from Baseline (plasma renin activity; Wk 12, 25 mg BID): 198.91 (423.17) % | Renin Activity, Mean (SD) Observed (plasma renin activity; Wk 12, 50 mg QD): 3.374 (7.008) μg/L/hr | Renin Activity, Mean (SD) Percent Change from Baseline (plasma renin activity; Wk 12, 50 mg QD): 400.07 (808.60) % | Renin Activity, Mean (SD) Observed (plasma renin activity; Wk 12, 100 mg QD): 1.653 (2.830) μg/L/hr | Renin Activity, Mean (SD) Percent Change from Baseline (plasma renin activity; Wk 12, 100 mg QD): 94.66 (221.58) % | Renin Activity, Mean Observed (plasma renin activity; Wk 4, 100 mg QD): 12.642 µg/L/h | Renin Activity, Mean Percent Change from Baseline (plasma renin activity; Wk 4, 100 mg QD): 811.54% | Renin Activity, Mean Observed (plasma renin activity; Wk 10, 100 mg QD): 7.602 µg/L/h | Renin Activity, Mean Percent Change from Baseline (plasma renin activity; Wk 10, 100 mg QD): 192.62% | Plasma renin activity, pharmacodynamic response (plasma renin activity; across doses): commensurate increase in plasma renin activity | Renin activity, percent change from baseline (plasma renin activity; irrespective of dose and baseline PRA, highest at Week 4): increased in all subjects treated with lorundrostat | Clinical laboratory parameters (chemistry, hematology, coagulation, urinalysis), change from baseline to Week 8 (hypertensive subjects; Part 1 or Part 2): no meaningful changes | Serum creatinine levels compared with placebo (hypertensive subjects; active treatment cohorts, Parts 1 and 2): increased
